Laboratory results: patent publication EP4324461A1, “(E)-N-CINAMOYLAMINOALKANOLES WITH MELANOGENESIS INHIBITORY ACTIVITY” (UNIWERSYTET JAGIELLONSKI, priority 2022, dated 2024)
Where two headings read alike, the source gives them in different places.

Columns and labels:
[1] = Lipophilicity coefficient RM0 by reversed phase thin layer chromatography; assay type: physicochemical; conditions: RP-18 TLC, methanol / 100 mM phosphate buffer pH = 7.4
Protocol: Confirmation of the identity and purity of the obtained compounds consisted in the registration and interpretation of ^1H NMR and ^13C NMR spectra (the spectra were recorded using an ECZR 500 MHz (JEOL) series FT-NMR spectrophotometer), as well as the registration and interpretation of LC-MS spectra (the spectra were recorded using Acquita UPLC system (Waters) coupled with a Waters TQD mass spectrometer). The melting point was measured using the open capillary method in the IA9300 device (Electrothermal). The lipophilicity coefficient RM0 was determined by reversed phase thin layer chromatography. In the study, aluminum plates 20x20 cm covered with modified silica gel RP-18 F254 (Merck) were used as the solid phase. The mobile phase consisted of solutions of methanol and 100 mM phosphate buffer (pH = 7.4), characterized by a variable methanol content ranging from 95 to 65% (v/v). The tested compounds were dissolved in methanol to obtain solutions with a concentration of 1 mg/mL. Then, 5 µL of the solutions prepared in this way were transferred to the starting line on aluminum plates, which were then placed in chromatographic chambers previously saturated with mobile phase vapors for at least 1 hour. All activities, including the development of chromatograms, were carried out at room temperature. After developing the chromatograms to approximately 1-2 cm from the end of the plate, the plates were dried and then the distance traveled by the tested compounds was visualized under UV light (λ = 254 nm). The experiment was performed in duplicate for the specified conditions. For all samples, Rf was calculated according to the formula Rf = a/b, where a - the distance traveled by the tested compound, b - the distance traveled by the mobile phase. Then, the RM parameter was calculated for all samples according to the formula RM = log(1/Rf - 1), obtaining a linear relationship between the RM values and the methanol concentration in the mobile phase. The logP coefficient was also calculated using the following computer programs: ACD/ChemSketch 2020.1.2 and ChemDraw 20.0.0.41. Table 2. The physicochemical data of the compounds are presented below

tyrosinase from mushroom = assay: Inhibition of commercial mushroom tyrosinase (L-DOPA or L-tyrosine substrate); assay type: biochemical
Protocol: The following substrates were used for the enzymatic reaction: L-tyrosine and L-3,4-dihyroxyphenylalanine (L-DOPA). Both substrates were used in independent experiments. According to the literature, the use of L-DOPA enables the assessment of tyrosinase diphenolase activity, and L-tyrosine - the tyrosinase monophenolase activity. The determinations were performed in 96-well plates, in each well there was placed: 170 µL or 127.5 µL of 50 mM phosphate buffer (pH = 6.8) with tyrosinase (1U/well or 3U/well) and 10 µL of a solution of the tested compound in DMSO (the final concentration in the well was 500 µM, 250 µM or 125 µM). The negative control used 10 µL of pure solvent (DMSO). To initiate the reaction, an appropriate substrate was added: L-tyrosine (62.5 µL of solution in phosphate buffer) or L-DOPA (20 µL of solution in phosphate buffer). After a 25-minute incubation, the absorbance was measured at 475 nm using a microplate reader. The percentage of inhibition of tyrosinase activity was calculated using the formula: [(AC -AT)/AC] × 100, where AC - is the absorbance of the negative control, AT - is the absorbance of the sample containing the tested compound.

[2] = tested on: B16-F10 murine melanoma cell line; assay: Cytotoxicity in B16-F10 cells (MTT); assay type: cell-based; conditions: 48 h
Protocol: In order to determine safe doses of compounds for testing the inhibition of melanogenesis in a murine melanoma cell line, cytotoxicity tests were performed. Cytotoxicity was determined by the colorimetric method using MTT ([3-(4,5-dimethyl-2-thiazolyl)-2,5-diphenyl-2H-tetrazolium bromide, Sigma M5655). For this purpose, cells were transferred to 96-well plates in an amount of 5000/well. After 24 h of culture in an incubator in F 10-Ham medium with 1% FBS, the tested compounds at various concentrations were added to the wells together with fresh medium. DMSO was added to the medium in a negative control. The MTT test was performed after further culture for 48 h. Then the medium was removed and the formed formazan crystals were dissolved in DMSO. The absorbance was measured at 570 nm in a plate reader and the result was compared to the control (DMSO), which was 100%. The percentage of viability was calculated using the formula: [AT/AC^∗100], where AT is the absorbance of the test sample, AC - absorbance of the control sample. Table 3. Results of inhibiting the activity of monophenolase […] tyrosinase and cytotoxicity testing in B16F10 cells for the described compounds.

S. typhimurium TA98 = assay: Ames microplate test, TA98; assay type: cell-based, Salmonella typhimurium;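 further: reference level is the mean solvent-control yellow wells plus SD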
Protocol: (§1) Bacteria were grown overnight in growth medium.
(§2) Table 9. Ames microplate test results.

S. typhimurium TA100 = assay: Ames microplate test, TA100; assay type: cell-based, Salmonella typhimurium;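 further: reference level is the mean solvent-control yellow wells plus SD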
Protocol: as §1, §2

S. typhimurium TA1537 = assay: Ames microplate test, TA1537; assay type: cell-based, Salmonella typhimurium;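 further: reference level is the mean solvent-control yellow wells plus SD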
Protocol: as §1, §2

[3] = tested on: Chinese hamster ovary cell line (CHO-K1); assay: Cytotoxicity in CHO-K1 cells (MTT) before the micronucleus test; assay type: cell-based; conditions: 24 hours
Protocol: The assay was performed using a Chinese hamster ovary cell line (CHO-K1) purchased from the American Type Culture Collection (ATCC). The cells were cultured in F-12K medium with the addition of 10% fetal bovine serum (FBS) and antibiotics (streptomycin/penicillin) in an incubator at 37 °C and 5% CO2 concentration). Before the actual micronucleus test, a cytotoxicity assessment was performed to ensure that the actual test was performed only at safe concentrations. For this purpose, cells were transferred to 96-well plates and incubated with the tested compounds for 24 hours. After this time, the MTT test was performed and cell viability was assessed in comparison to the control group (cells cultured with DMSO at the same concentration as in the case of the tested samples).

[4] = tested on: Chinese hamster ovary cell line (CHO-K1); assay: Genotoxicity in the micronucleus test in CHO-K1 cells; assay type: cell-based
S. typhimurium TA1535 = assay: Ames microplate test, TA1535;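 further: bacteria exposed to compound 90 min at 37 °C, then kept 48 h at 37 °C with indicator medium in 384-well plates, scoring wells that turned yellow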
Protocol: (§3) The study used the Ames microplate test (Ames MPF™ Penta 2 by Xenometrix, Allschwil, Switzerland). Growth medium, exposure medium, indicator medium, positive controls, hepatic microsomal fraction, NADP, glucose-6-phosphate, Salmonella typhimurium and Escherichia coli strains were components of the purchased experimental kit. Bacteria were grown overnight in growth medium. They were then exposed to the test compound at the appropriate concentration in exposure medium without or with the rat microsomal fraction S9 in 24-well plates for 90 min at 37 °C with shaking. Then, indicator medium was added to the wells and pipetted into 384-well plates, which were incubated for 48 hours at 37 °C without shaking. Results were assessed by counting the wells in which the medium turned yellow for each experimental condition.

E. coli WP2 = assay: Ames microplate test, E. coli WP2;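 further: bacteria treated 90 min at 37 °C in 24-well plates, then indicator medium dispensed to 384-well plates and incubated 48 h before yellow-well counting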
Protocol: as §3

CCC(O)CNC(=O)/C=C/c1ccc(Cl)cc1 (centres unmarked) [Compound A-67, (2E)-3-(4-chlorophenyl)-N-(2-hydroxybutyl)prop-2-enamide]
RM0 [1]: 2.46
Tyrosinase inhibition with L-DOPA [%] (tyrosinase from mushroom; L-DOPA): 60.76±1.99% (500 µM)
IC50 (tyrosinase from mushroom; L-DOPA, read-out: Tyrosinase inhibition with L-DOPA, IC50): 232 µM
Tyrosinase inhibition with L-tyrosine [%] (tyrosinase from mushroom; L-tyrosine): 79.20±1.20% (500 µM)
IC50 (tyrosinase from mushroom; L-tyrosine, read-out: Tyrosinase inhibition with L-tyrosine, IC50): 165 µM
Cytotoxicity study in B16F10 cells % viability ([2]; 150 µM): 73.6%
Cytotoxicity study in B16F10 cells % viability ([2]; 200 µM): 87.8%
Cytotoxicity study in B16F10 cells % viability ([2]; 250 µM): 84.4%
Increase in the number of yellow wells compared to the reference level (S. typhimurium TA98; 0.5 mM, +S9): 0.31
Increase in the number of yellow wells compared to the reference level (S. typhimurium TA98; 0.5 mM, without S9): 0.27
Increase in the number of yellow wells compared to the reference level (S. typhimurium TA98; 1.0 mM, +S9): 0.94
Increase in the number of yellow wells compared to the reference level (S. typhimurium TA98; 1.0 mM, without S9): 1.07
Increase in the number of yellow wells compared to the reference level (S. typhimurium TA98; 2.0 mM, +S9): 1.04
Increase in the number of yellow wells compared to the reference level (S. typhimurium TA98; 2.0 mM, without S9): 1.07
Increase in the number of yellow wells compared to the reference level (S. typhimurium TA100; 0.5 mM, +S9): 0.78
Increase in the number of yellow wells compared to the reference level (S. typhimurium TA100; 0.5 mM, without S9): 1.53
Increase in the number of yellow wells compared to the reference level (S. typhimurium TA100; 1.0 mM, +S9): 0.64
Increase in the number of yellow wells compared to the reference level (S. typhimurium TA100; 1.0 mM, without S9): 0.93
Increase in the number of yellow wells compared to the reference level (S. typhimurium TA100; 2.0 mM, +S9): 0.31
Increase in the number of yellow wells compared to the reference level (S. typhimurium TA100; 2.0 mM, without S9): 0.80
Increase in the number of yellow wells compared to the reference level (S. typhimurium TA1537; 0.5 mM, +S9): 1.00
Increase in the number of yellow wells compared to the reference level (S. typhimurium TA1537; 0.5 mM, without S9): 0.00
Increase in the number of yellow wells compared to the reference level (S. typhimurium TA1537; 1.0 mM, +S9): 1.33
Increase in the number of yellow wells compared to the reference level (S. typhimurium TA1537; 1.0 mM, without S9): 0.18
Increase in the number of yellow wells compared to the reference level (S. typhimurium TA1537; 2.0 mM, +S9): 0.00
Increase in the number of yellow wells compared to the reference level (S. typhimurium TA1537; 2.0 mM, without S9): 0.82
% Viability [mean] ([3]; 100 µM): 96.0%
% Viability [mean] ([3]; 150 µM): 90.3%
% Viability [mean] ([3]; 200 µM): 84.0%
DB (dicentric bridges in 1000 binucleate cells) ([4]; 100 µM): 3.3 ± 0.6
MN (number of micronuclei in 1000 binucleate cells) ([4]; 100 µM): 12.0 ± 5.7
NB (nuclear buds in 1000 binucleate cells) ([4]; 100 µM): 5.0 ± 2.8
NDI (nuclear division index) ([4]; 100 µM): 1.58
DB (dicentric bridges in 1000 binucleate cells) ([4]; 150 µM): 2.3 ± 0.6
MN (number of micronuclei in 1000 binucleate cells) ([4]; 150 µM): 8.0 ± 2.8
NB (nuclear buds in 1000 binucleate cells) ([4]; 150 µM): 5.5 ± 2.1
NDI (nuclear division index) ([4]; 150 µM): 1.62
DB (dicentric bridges in 1000 binucleate cells) ([4]; 200 µM): 3.0 ± 2.8
MN (number of micronuclei in 1000 binucleate cells) ([4]; 200 µM): 6.5 ± 2.1
NB (nuclear buds in 1000 binucleate cells) ([4]; 200 µM): 5.5 ± 0.7
NDI (nuclear division index) ([4]; 200 µM): 1.62
Increase in the number of yellow wells compared to the reference level (S. typhimurium TA1535; 0.5 mM, +S9): 0.27
Increase in the number of yellow wells compared to the reference level (S. typhimurium TA1535; 0.5 mM, without S9): 0.30
Increase in the number of yellow wells compared to the reference level (S. typhimurium TA1535; 1.0 mM, +S9): 0.54
Increase in the number of yellow wells compared to the reference level (S. typhimurium TA1535; 1.0 mM, without S9): 0.45
Increase in the number of yellow wells compared to the reference level (S. typhimurium TA1535; 2.0 mM, +S9): 0.13
Increase in the number of yellow wells compared to the reference level (S. typhimurium TA1535; 2.0 mM, without S9): 1.04
Increase in the number of yellow wells compared to the reference level (E. coli WP2; 0.5 mM, +S9): 0.83
Increase in the number of yellow wells compared to the reference level (E. coli WP2; 0.5 mM, without S9): 0.50
Increase in the number of yellow wells compared to the reference level (E. coli WP2; 1.0 mM, +S9): 0.42
Increase in the number of yellow wells compared to the reference level (E. coli WP2; 1.0 mM, without S9): 1.00
Increase in the number of yellow wells compared to the reference level (E. coli WP2; 2.0 mM, +S9): 1.42
Increase in the number of yellow wells compared to the reference level (E. coli WP2; 2.0 mM, without S9): 0.83

Cc1ccc(/C=C/C(=O)NCCCO)cc1 [H-410/21, (2E)-N-(3-hydroxypropyl)-3-(4-methylphenyl)prop-2-enamide]
RM0 [1]: 2.04
Tyrosinase inhibition with L-DOPA [%] (tyrosinase from mushroom; L-DOPA): 16.99±5.66% (500 µM)
Tyrosinase inhibition with L-tyrosine [%] (tyrosinase from mushroom; L-tyrosine): 0.51±5.40% (500 µM)
Cytotoxicity study in B16F10 cells % viability ([2]; 150 µM): 88.8%
Cytotoxicity study in B16F10 cells % viability ([2]; 200 µM): 90.7%
Cytotoxicity study in B16F10 cells % viability ([2]; 250 µM): 79.8%

Cc1ccc(/C=C/C(=O)NCCCCO)cc1 [H-411/21, (2E)-N-(4-hydroxybutyl)-3-(4-methylphenyl)prop-2-enamide]
RM0 [1]: 2.27
Tyrosinase inhibition with L-DOPA [%] (tyrosinase from mushroom; L-DOPA): 16.89±7.94% (500 µM)
Tyrosinase inhibition with L-tyrosine [%] (tyrosinase from mushroom; L-tyrosine): 20.43±2.09% (500 µM)
Cytotoxicity study in B16F10 cells % viability ([2]; 150 µM): 50.6%
Cytotoxicity study in B16F10 cells % viability ([2]; 200 µM): 34.9%
Cytotoxicity study in B16F10 cells % viability ([2]; 250 µM): 41.2%
